# Laboratory results as given in patent US20260028355A1, “PROTEOLYSIS TARGETING CHIMERA (PROTAC) COMPOSITIONS USING UBIQUITIN CONJUGATING ENZYME LIGANDS” (Berg LLC, priority 2022, published 2026).
# How the values were obtained:
# UBE2K = molecular target: T1, UBE2K (Homo sapiens, UniProt P61086); assay: UBE2K dissociation constant (Kd) by surface plasmon resonance (Biacore S200); assay type: binding; conditions: SPR, steady state fitting; immobilized biotinylated UBE2K-Ub complex and UBE2K wild type
# T1 sequence (P61086 1-200): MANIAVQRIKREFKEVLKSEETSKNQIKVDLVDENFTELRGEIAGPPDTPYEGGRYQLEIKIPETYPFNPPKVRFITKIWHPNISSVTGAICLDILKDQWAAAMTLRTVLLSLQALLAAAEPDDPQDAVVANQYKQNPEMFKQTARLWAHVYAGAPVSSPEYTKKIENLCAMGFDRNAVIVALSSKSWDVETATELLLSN
# Method: UBE2K Dissociation Constant (Kd) of E2-binder Compound 1
# UBE2K Ligand binding to mono-Ub UBE2K and UBE2K was measured by Surface plasma resonance using a Biacore SPR S200 instrument. The proteins and ligands were prepared for experimental measurement as described below.
# Avi tagged proteins were biotinylated and were immobilized on a Series S/Sensor Chip SA. Proteins were immobilized based on their molar weight as follows -Biotinylated Avi peptide (1000 μM), Biotinylated UBE2K-Ub Complex (12 μM) and Biotinylated UBE2K Wild Type (3 μM). Proteins were immobilized using a buffer comprised of 1X HBS-N Buffer+0.05% Tween 20 (250 mL). A stock of Compound 1 was prepared in affinity buffer comprised of 1% DMSO, 1×PBS-P+Buffer. Further dilution of stock were prepared in 0% DMSO, 1×PBS-P+Buffer or 3% DMSO, 1×PBS-P+Buffer and were used as running buffers. Compound 1 was prepared as 2 mM or 750 μM stocks in the buffers described above. Titration was performed using the Liquid handler/TECAN EVO (WALL-E) as follows. 1 or 2, 96 deep well plates (1.2 mL) were used for performing titrations-Aliquoted 3% DMSO, 1×PBS-P+buffer. 1:2 dilution was performed by WALL-E (250 μL+250 μL) for the rest of titrations till 3.12 μM. The titrations of Compound 1 was then transferred to 384 deep well plate in duplicates side-by-side (125 μL) each. […]
# UBE2K-Ub = assay: E2 binding capacity of PROTACs (FIG. 1)
# Source text: UBE2K binder Compound 1 was used as a precursor to generate PROTAC Compounds 2, 6, 7, and 9. See experimental section above. Each of these PROTACs were first tested for their ability to bind the E2 enzyme UBE2K.
# BRD4 = molecular target: T2, BRD4 (Homo sapiens, UniProt O60885); assay: Dose dependent degradation of BRD4 in HeLa cells (FIG. 2); assay type: cell-based
# T2 construct: dose dependent degradation of BRD4 in HeLa cells; endogenous in cells; host or cells: HeLa
# Source text: FIG. 2 illustrates the dose dependent degradation of BRD4 in HeLa cells using E2 binding PROTACS based on the present disclosure.
# Dose Dependent Degradation of BRD4 in HeLa Cells
# Compounds 6, 7, and 9 were then investigated for their ability to degrade BRD4.
SMILES,loss of BRD4 (BRD4),further results
"O=C(NCc1cc2c3ccccc3nc(S)n2n1)c1ccccc1OC(F)(F)F [Compound 1, N-((5-thioxo-5,6-dihydropyrazolo[1,5-c]quinazolin-2-yl)methyl)-2-(trifluoromethoxy)benzamide]",,Kd (UBE2K): 2.11 µM
"Cc1sc2c(c1C)C(c1ccc(Cl)cc1)=N[C@@H](CC(=O)NCCSc1nc3ccccc3c3cc(CNC(=O)c4ccccc4OC(F)(F)F)nn13)c1nnc(C)n1-2 [Compound 2, (S)—N-((5-((2-(2-(4-(4-chlorophenyl)-2,3,9-trimethyl-6H-thieno[3,2-f][1,2,4]triazolo[4,3-a][1,4]diazepin-6-yl)acetamido)ethyl)thio)pyrazolo[1,5-c]quinazolin-2-yl)methyl)-2-(trifluoromethoxy) benzamide]",,binding to UBE2K-Ub (UBE2K-Ub): All compounds except for Compound 2 bind
"Cc1sc2c(c1C)C(c1ccc(Cl)cc1)=N[C@@H](CC(=O)NCCOCCNC(=O)CSc1nc3ccccc3c3cc(CNC(=O)c4ccccc4OC(F)(F)F)nn13)c1nnc(C)n1-2 [Compound 7, (S)—N-((5-((2-((2-(2-(2-(4-(4-chlorophenyl)-2,3,9-trimethyl-6H-thieno[3,2-f][1,2,4]triazolo[4,3-a][1,4]diazepin-6-yl)acetamido)ethoxy)ethyl)amino)-2-oxoethyl)thio)pyrazolo[1,5-c]quinazolin-2-yl)methyl)-2-(trifluoromethoxy)benzamide]",concentration dependent loss of BRD4,
"Cc1sc2c(c1C)C(c1ccc(Cl)cc1)=N[C@@H](CC(=O)NCCOCCOCCNC(=O)CSc1nc3ccccc3c3cc(CNC(=O)c4ccccc4OC(F)(F)F)nn13)c1nnc(C)n1-2 [Compound 9, (S)—N-((5-((14-(4-(4-chlorophenyl)-2,3,9-trimethyl-6H-thieno [3,2 f][1,2,4]triazolo [4,3-a][1,4]diazepin-6-yl)-2,13-dioxo-6,9-dioxa-3,12-diazatetradecyl)thio)pyrazolo[1,5-c]quinazolin-2-yl)methyl)-2-(trifluoromethoxy)benzamide]",concentration dependent loss of BRD4,
